In assay [1] the target is T1, CD73 (Homo sapiens (Human), UniProt P21589). As to the kind of experiment: MDA-MB-231 Cell Based CD73 Activity Assay (DMEM). The note with it: MDA-MB-231-GFP cells, DMEM medium with 10% human plasma, 200 uM AMP.
For assay [2], the target named is T1, CD73. The class given is biochemical. The note with it: 1 mM NaH2PO4 in enzyme buffer, CD73 0.3 nM, AMP 15 uM.

This passage reports EC50 and IC50 results from patent publication US20240043427A1 (Gilead Sciences, Inc., priority 2020, published 2024).

T1 sequence (P21589 27-574): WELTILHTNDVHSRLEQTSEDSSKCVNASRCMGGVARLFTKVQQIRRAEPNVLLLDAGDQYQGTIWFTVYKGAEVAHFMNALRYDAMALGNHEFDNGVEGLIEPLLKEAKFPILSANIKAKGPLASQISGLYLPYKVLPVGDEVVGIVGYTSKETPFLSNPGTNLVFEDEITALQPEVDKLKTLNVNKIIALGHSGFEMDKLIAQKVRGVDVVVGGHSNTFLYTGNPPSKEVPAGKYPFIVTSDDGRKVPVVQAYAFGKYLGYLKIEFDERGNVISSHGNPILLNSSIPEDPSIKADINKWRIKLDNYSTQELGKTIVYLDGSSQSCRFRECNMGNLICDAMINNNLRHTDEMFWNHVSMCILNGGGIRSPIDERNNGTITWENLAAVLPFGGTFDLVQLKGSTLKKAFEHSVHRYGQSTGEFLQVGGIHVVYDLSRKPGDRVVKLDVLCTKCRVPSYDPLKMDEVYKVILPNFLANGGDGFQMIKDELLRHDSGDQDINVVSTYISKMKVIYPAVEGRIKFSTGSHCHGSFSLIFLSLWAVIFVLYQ

The compound `O=c1[nH]cc(-c2cc(N3CC(F)(C(F)(F)F)C3)c3ncc(Cl)n3n2)c(=O)[nH]1` [Example 455, 5-(3-chloro-8-(3-fluoro-3-(trifluoromethyl)azetidin-1-yl)imidazo[1,2-b]pyridazin-6-yl)pyrimidine-2,4(1H,3H)-dione] showed a 50% effective concentration (EC50) in assay [1] of 46 nM. This compound registered an IC50 in assay [2] of 14.9 nM.
For the compound `CC(C)[C@@H]1CCN(c2cc(-c3c[nH]c(=O)[nH]c3=O)nn3ccnc23)C1` [Example 174, (S)-5-(8-(3-isopropylpyrrolidin-1-yl)imidazo[1,2-b]pyridazin-6-yl)pyrimidine-2,4(1H,3H)-dione], it took 214 nM to reach a half-maximal effect in assay [1] (EC50). In addition, half-maximal inhibition in assay [2] (IC50) required 69 nM.
In the same order, the values of `C[C@H]1CN(c2cc(-c3c[nH]c(=O)[nH]c3=O)nn3ccnc23)CC1(F)F` [Example 516, (S)-5-(8-(3,3-difluoro-4-methylpyrrolidin-1-yl)imidazo[1,2-b]pyridazin-6-yl)pyrimidine-2,4(1H,3H)-dione] are 12.8 nM and 3.17 nM.
Compound `O=c1[nH]cc(-c2cc(N3CC[C@@H](C(F)F)C3)c3nccn3n2)c(=O)[nH]1` [Example 230, (R)-5-(8-(3-(difluoromethyl)pyrrolidin-1-yl)imidazo[1,2-b]pyridazin-6-yl)pyrimidine-2,4(1H,3H)-dione] displayed an EC50 in assay [1] of 64.7 nM. In assay [2], the midpoint of inhibition, the IC50, lay at 39.5 nM.
The matching figures for `O=c1[nH]cc(-c2cc(N3CC(F)(F)C(F)(F)C3)n3nccc3n2)c(=O)[nH]1` [Example 358, 5-(7-(3,3,4,4-tetrafluoropyrrolidin-1-yl)pyrazolo[1,5-a]pyrimidin-5-yl)pyrimidine-2,4(1H,3H)-dione]: 82.2 nM and 27.8 nM.
For the compound `CC(C)(COc1cc(-c2c[nH]c(=O)[nH]c2=O)nn2ccnc12)C(F)(F)F` [Example 676, 5-(8-(3,3,3-trifluoro-2,2-dimethylpropoxy)imidazo[1,2-b]pyridazin-6-yl)pyrimidine-2,4(1H,3H)-dione], the EC50 in assay [1] is 429 nM. Moreover, half-maximal inhibition in assay [2] (IC50) was put at 141 nM.
For `N#CC1(F)CCN(c2cc(-c3c[nH]c(=O)[nH]c3=O)nn3ccnc23)C1` (stereo not shown) [Example 195, 1-[6-(2,4-dioxo-1H-pyrimidin-5-yl)imidazo[1,2-b]pyridazin-8-yl]-3-fluoro-pyrrolidine-3-carbonitrile], the concentration giving a half-maximal response (EC50) in assay [1] is 218 nM. The same compound yielded an IC50 in assay [2] of 62.9 nM.
For the compound `O=c1[nH]cc(-c2cc(OCC(F)(F)c3ccccn3)c3nccn3n2)c(=O)[nH]1` [Example 692, 5-(8-(2,2-difluoro-2-(pyridin-2-yl)ethoxy)imidazo[1,2-b]pyridazin-6-yl)pyrimidine-2,4(1H,3H)-dione], the EC50 in assay [1] stood at 23.1 nM. In assay [2], this compound registered an IC50 of 3.2 nM.
The matching figures for `O=C(CC1CN(c2cc(-c3c[nH]c(=O)[nH]c3=O)nn3ccnc23)CC1(F)F)NC12CC(F)(C1)C2` (stereo not shown) [Example 660, 2-(1-(6-(2,4-dioxo-1,2,3,4-tetrahydropyrimidin-5-yl)imidazo[1,2-b]pyridazin-8-yl)-4,4-difluoropyrrolidin-3-yl)-N-(3-fluorobicyclo[1.1.1]pentan-1-yl)acetamide]: 33.6 nM and 6.05 nM.
With `O=c1[nH]cc(-c2cc(NCCc3ccccc3Cl)c3nccn3n2)c(=O)[nH]1` [Example 491, 5-(8-((2-chlorophenethyl)amino)imidazo[1,2-b]pyridazin-6-yl)pyrimidine-2,4(1H,3H)-dione], the concentration for a half-maximal effect (EC50) in assay [1] is 1680 nM. The compound further gave an IC50 in assay [2] of over 250 nM.
`COCC1(F)CCN(c2cc(-c3c[nH]c(=O)[nH]c3=O)nn3ccnc23)C1` (stereo not shown) [Example 188, 5-[8-[3-fluoro-3-(methoxymethyl)pyrrolidin-1-yl]imidazo[1,2-b]pyridazin-6-yl]-1H-pyrimidine-2,4-dione] showed an EC50 in assay [1] of 62.5 nM. The compound further gave an IC50 in assay [2] of 17.5 nM.
In the same order, the values of `CC1(C#N)CCN(c2cc(-c3c[nH]c(=O)[nH]c3=O)nn3ccnc23)C1` (stereo not shown) [Example 649, 1-(6-(2,4-dioxo-1,2,3,4-tetrahydropyrimidin-5-yl)imidazo[1,2-b]pyridazin-8-yl)-3-methylpyrrolidine-3-carbonitrile] are 21.7 nM and 11.7 nM.
Compound `O=C(Nc1c(F)cc(F)cc1F)O[C@H]1CN(c2cc(-c3c[nH]c(=O)[nH]c3=O)nn3ccnc23)CC1(F)F` [Example 239, (S)-1-(6-(2,4-dioxo-1,2,3,4-tetrahydropyrimidin-5-yl)imidazo[1,2-b]pyridazin-8-yl)-4,4-difluoropyrrolidin-3-yl (2,4,6-trifluorophenyl)carbamate] displayed an EC50 in assay [1] of 1.17 nM. Also, inhibition in assay [2] was half-maximal at 0.86 nM (IC50).
The matching figures for `O=c1[nH]cc(-c2cc(N3CC(Oc4cnc(C(F)(F)F)cn4)C(F)(F)C3)c3nccn3n2)c(=O)[nH]1` (stereo not shown) [Example 340, 5-(8-(3,3-difluoro-4-((5-(trifluoromethyl)pyrazin-2-yl)oxy)pyrrolidin-1-yl)imidazo[1,2-b]pyridazin-6-yl)pyrimidine-2,4(1H,3H)-dione]: 19 nM and 1.48 nM.
For the compound `O=c1[nH]cc(-c2cc([C@H]3C[C@@H]3c3ncc(C(F)(F)F)cc3F)c3nccn3n2)c(=O)[nH]1` (racemic) [Example 582, 5-(8-((1S,2S)-2-(3-fluoro-5-(trifluoromethyl)pyridin-2-yl)cyclopropyl)imidazo[1,2-b]pyridazin-6-yl)pyrimidine-2,4(1H,3H)-dione], the EC50 in assay [1] was found to be 15.6 nM. Besides, the IC50 in assay [2] came out at 4.96 nM.
Regarding `O=c1[nH]cc(-c2cc([C@H]3C[C@@H]3c3ccc(C(F)(F)F)cn3)c3nccn3n2)c(=O)[nH]1` [Example 150, 5-(8-((1S,2S)-2-(5-(trifluoromethyl)pyridin-2-yl)cyclopropyl)imidazo[1,2-b]pyridazin-6-yl)pyrimidine-2,4(1H,3H)-dione], it took 4.79 nM to reach a half-maximal effect in assay [1] (EC50). This compound also came in with an IC50 in assay [2] of 1.93 nM.
The matching figures for `O=c1[nH]cc(-c2cc(NCCc3ccc(F)cc3)c3nccn3n2)c(=O)[nH]1` [Example 496, 5-(8-((4-fluorophenethyl)amino)imidazo[1,2-b]pyridazin-6-yl)pyrimidine-2,4(1H,3H)-dione]: 154 nM and 64 nM.
`CC1CN(c2cc(-c3c[nH]c(=O)[nH]c3=O)nn3ccnc23)CC1(F)F` (stereo not shown) [Example 479, 5-(8-(3,3-difluoro-4-methylpyrrolidin-1-yl)imidazo[1,2-b]pyridazin-6-yl)pyrimidine-2,4(1H,3H)-dione] gave an EC50 in assay [1] of 9.06 nM. Also, in assay [2], the midpoint of inhibition, the IC50, lay at 2.6 nM.
Regarding `O=c1[nH]cc(-c2cc(N3CCC4(CCC4)C3)c3nccn3n2)c(=O)[nH]1` [Example 569, 5-(8-(6-azaspiro[3.4]octan-6-yl)imidazo[1,2-b]pyridazin-6-yl)pyrimidine-2,4(1H,3H)-dione], the EC50 in assay [1] is 11.2 nM. Besides, in assay [2], the IC50 was 6.66 nM.
In the same order, the values of `O=c1[nH]cc(-c2cc([C@H]3C[C@@H]3c3ccc4ncsc4c3)c3ncc(F)n3n2)c(=O)[nH]1` (racemic) [Example 581, 5-(8-((1S,2S)-2-(benzo[d]thiazol-6-yl)cyclopropyl)-3-fluoroimidazo[1,2-b]pyridazin-6-yl)pyrimidine-2,4(1H,3H)-dione] are 2.16 nM and 0.89 nM.

Usually EC50 stands for the concentration giving half of the maximal effect. Low readings indicate greater potency, high ones weaker potency. A word on the IC50: it is the concentration that gives 50% inhibition.
